# Assay results reported in patent US7045495B2 (Sloan-Kettering Institute for Cancer Research, priority 1996, dated 2006).
# “And” between values parts separate entries of the source, which are not always exact repeats. Identical values can stand only once. Counter-ions that a name gives are not always drawn. Like-named read-outs stand apart in the source and are kept apart here.
# Assays:
# [1] = test system: 16C mammary carcinoma; conditions: cisplatin 10 mg/kg i.v.; safingol 20 mg/kg i.p.; cited from earlier work
# [2] = test system: SK-GT-2; experiment: clonogenic assay, resistance relative to MKN-74; assay type: cell-based, human; conditions: 10 μg/ml CDDP, 5 μg/ml MMC, 50 FM 5-FU
# Description: (§1) The basis of drug resistance in these disease has not been well defined. […] For gastric cancer applicants have been successful in establishing five long-term cell lines, SK-GT-1, SK-GT-2, SK-GT-4, SK-GT-5, and SK-GT-6 for Sloan Kettering Gastric Tumor (12,13) none of which express P-glycoprotein (14). Yet, all these tumors are resistant to chemotherapy and to the induction of apoptosis. Applicants have reported that the relative sensitivity of these gastric cancer cells to chemotherapy is influenced by their p53 status (14).
# [3] = test system: NU-GC-4; experiment: clonogenic assay, resistance relative to MKN-74; assay type: cell-based, human; conditions: 10 μg/ml CDDP, 5 μg/ml MMC
# Description: as §1
# [4] = test system: MKN-74; experiment: clonogenic assay, resistance relative to MKN-74; assay type: cell-based, human; conditions: MKN-74 (reference); 10 μg/ml CDDP, 5 μg/ml MMC, 50 FM 5-FU
# Description: as §1
# [5] = test system: SK-GT-1; experiment: clonogenic assay, resistance relative to MKN-74; assay type: cell-based, human; conditions: clonogenic survival ratio, 10 μg/ml CDDP, 5 μg/ml MMC, 50 FM 5-FU
# Description: as §1
# [6] = test system: SK-GT-5; experiment: clonogenic assay, resistance relative to MKN-74; assay type: cell-based, human; conditions: 10 μg/ml CDDP, 5 μg/ml MMC, 50 FM 5-FU
# Description: as §1
# [7] = test system: MKN-74; experiment: cell viability, trypan blue dye exclusion; assay type: cell-based, human; conditions: 24 hours, single drug or concomitant; bryostatin 1 μM, Mitomycin-C 1 μg/ml, Taxol 50 μM, Cisplatin 50 μM
# Description: Recently our laboratory has studied the effects of combining bryostatin with chemotherapy both in vitro and in vivo against solid tumors. For our in vitro studies, we have been using the human gastric cancer cell line MKN-74. Cytotoxicity has been examined both by cell viability assays using trypan blue dye exclusion assays and by the induction of apoptosis using quantitative fluorescent microscopy.
# [8] = test system: bcl-2 in OV432 cells; experiment: bcl-2 expression by Western immunoblotting; assay type: cell-based; conditions: FLAVO concentrations as low as 50 nM
# Description: (§2) Over-expression of bcl-2 has been associated with resistance to chemotherapy and inhibition of apoptosis.
# [9] = dog, in vivo, iv, 2.6 mg/kg; cited from earlier work
# [10] = test system: SUDHL-4 lymphoma cells; conditions: cited from earlier work
# [11] = test system: MKN-74 cells; experiment: apoptosis by QFM, Hoechst-33258 staining; assay type: cell-based, human
# Procedure: Apoptosis was measured by two different methods: (i) Quantitative fluorescent microscopy (QFM) of nuclear changes induced by apoptosis, as determined by bisbenzimide trihydrochloride (Hoescht-33258) staining of nuclear chromatin (15), and (ii) a terminal deoxynucleotidyl transferase (TdT) assay that labels the 3′-OH ends of DNA fragments produced in apoptotic cells (16). […] MMC was diluted in water. A stock safingol solution was constituted in DMSO and was subsequently diluted at least 1:100 in media for all experiments. […] For QFM determinations, the cells were fixed in 3% paraformaldehyde and incubated at room temperature for 10 minutes. The fixative was removed and the cells were washed with 1×PBS, resuspended in 20 μl 1×PBS containing only 8 μg/ml of bisbenzimide trihydrochloride (Hoechst #33258), and incubated at room temperature for 15 minutes. Aliquots of the cells (10 μl) were placed on glass slides coated with 3-amino-propyl-triethoxysilane, and duplicate samples of 500 cells each were counted and scored for the incidence of apoptotic chromatin condensation using an Olympus BH-2 fluorescence microscope equipped with a BH2-DM2U2UV Dich. Mirror Cube filter (Olympus, Lake Success, N.Y.). For the TdT assays, the ApopTag Kit (Oncor, Gaithersburg, Md.) was used. This method employs a fluoresceinated antidigoxigenin antibody directed against nucleotides of digoxigenin-11-dUTP (d-dUTP) which are catalytically added to the 3-ends fragmented DNA by TdT. Briefly, 1–2×10^6 cells were washed and fixed with 1% paraformaldehyde. The fixed cells were incubated in a reaction mixture containing TdT and d-dUTP for 30 minutes at 37° C. Stop/wash buffer was added, and the cells were resuspended in 100 μl of fluorescinated anti-digoxigenin antibody for 30 minutes at room temperature. The cells were then washed with 0.1% Triton X-100 and counterstained with propidium iodide (PI) solution. Green (d-dUTP labeled DNA strand breaks) and red (PI staining for total DNA content) fluorescence of individual cells were measured on a FACScan flow cytometer (Becton Dickinson, San Jose, Calif.). The resulting bivariate plots enabled the detection of apoptotic events within the cell cycle. The R1 cursor was set using the control specimen to define normal levels of green fluorescence (i.e., basal levels of apoptosis). Cells with fluorescence above the R, cursor were considered apoptotic. The data from 10,000 cells were collected and analyzed using CellFit and LYSYS software (Becton Dickinson).
# Apoptosis was again measured by QFM staining.
# (§3) Induction of apoptosis was estimated by counting the frequency of condensed nuclear chromatin with Hoechst-33258 stain in duplicate samples of 400 cells.
# For these studies apoptosis was measured by quantitative fluorescent microscopy (QFM) determination with bisbenzimide trihydrochloride stain (Hoescht-33258) for condensed nuclear chromatin characteristic of apoptotic cells.
# For QFM determinations 500 cells were counted and scored for the incidence of apoptotic chromatin changes under an Olympus BH-2 fluorescence microscope in duplicate samples, ±SD, using a BH2-DM2U2UV Dich. Mirror Cube filter.
# To study this further applicants elected to examine five bis-indolylmaleimides with various potencies against PKC. […] The induction of apoptosis was estimated by counting the frequency of condensed nuclear chromatin with Hoechst-33258 stain in duplicate samples of 400 cells.
# [12] = Fischer 344 rats, cited from earlier work
# [13] = test system: PKC obtained from MKN-74 gastric cancer cells; experiment: PKC purified from MKN-74 cells, phosphorylation of myelin basic protein; assay type: biochemical, human; conditions: for PKC activity: no drug 25,000
# Description: For these experiments MKN-74 cells were homogenized and PKC was purified on a DEAE cellulose column as described (37). […] A control sample was also run with the PKC pseudosubstrate, which functions as an established PKC inhibitor. The results, as shown in the table below, are expressed as the absolute counts of [^32P]ATP incorporated into myelin basic protein/minute of assay time: […]
# [14] = second phase I trial; cited from earlier work
# [15] = molecular target: cyclic-adenosine monophosphate-dependent protein kinase A; conditions: flavopiridol; read-out: IC50, cyclic AMP-dependent protein kinase; cited from earlier work
# [16] = test system: PKC; conditions: flavopiridol; read-out: IC50, PKC enzyme activity; cited from earlier work
# [17] = test system: MKN-74 cells; experiment: trypan blue exclusion and alamar blue assays; assay type: cell-based; conditions: Homo sapiens, FLAVO 24 hours
# Description: as §2
# [18] = test system: OV432; experiment: trypan blue exclusion and alamar blue assays; assay type: cell-based; conditions: FLAVO 24 hours
# Description: as §2
# [19] = test system: 183CLL; experiment: trypan blue exclusion and alamar blue assays; assay type: cell-based; conditions: FLAVO 24 hours
# Description: as §2
# [20] = test system: MDA-MB-468 cells; conditions: cited from earlier work
# [21] = test system: bcl-2 in MKN-74 cells; experiment: bcl-2 expression by Western immunoblotting; assay type: cell-based, human; conditions: 300 nM of FLAVO; co-treatment with MMC 50 μM
# Description: as §2
# [22] = test system: A549, HCT 8, T986, MCF-7 and HL-60 human cancer cell lines; conditions: cited from earlier work
# [23] = test system: MDA-MB-468 breast cancer cells; experiment: apoptosis by QFM, Hoechst-33258 staining; assay type: cell-based, human; conditions: MDA-MB-468; flavopiridol, MMC
# Procedure: PRELIMINARY STUDIES. […] Apoptosis was measured by quantitative fluorescent microscopy (QFM) of nuclear changes induced by apoptosis, as determined by bisbenzimide trihydrochloride (Hoescht-33258) staining of condensed nuclear chromatin (24). For the QFM duplicate samples of 500 cells each were counted and scored for the incidence of apoptotic chromatin condensation using an Olympus BH-2 fluorescence microscope.
# Applicants also tested the PKC inhibitor UCN-01 (27) which is currently in phase I clinical trial at the NCI. In contrast to safingol, which inhibits PKC by binding to its regulatory domain, UCN-01 inhibits PKC at its catalytic domain. Therefore, assessment of the effect of UCN-01 on inducing apoptosis in combination with MMC on MDA-MB-468 was also performed. The QFM method to quantitate apoptosis was again used. The conditions tested were identical to those described above for safingol except UCN-01 (1 μM) was substituted for safingol in all the conditions.
# as §3
# [24] = cited from earlier work
# [25] = test system: PC-3 prostate cancer cells; conditions: cited from earlier work
compound,measurement,setting,value
"N.N.[Cl][Pt][Cl] [cisplatin, Cisplatin]",time for tumor to reach 5 times its starting size,[1],10 days
same,Fold-Increase in Resistance Relative to MKN-74 (p53wt),[2],11X
same,Fold-Increase in Resistance Relative to MKN-74 (p53wt),[3],2X
same,Fold-Increase in Resistance Relative to MKN-74 (p53wt),[4],1X
same,Fold-Increase in Resistance Relative to MKN-74 (p53wt),[5],21X
same,Fold-Increase in Resistance Relative to MKN-74 (p53wt),[6],12X
same,% of Cells Alive,[7],60%
"O=c1[nH]cc(F)c(=O)[nH]1 [5-FU, 5-Fluorouracil]",Fold-Increase in Resistance Relative to MKN-74 (p53wt),[2],12X
same,Fold-Increase in Resistance Relative to MKN-74 (p53wt),[3],0.6X
same,Fold-Increase in Resistance Relative to MKN-74 (p53wt),[4],1X
same,Fold-Increase in Resistance Relative to MKN-74 (p53wt),[5],11X
same,Fold-Increase in Resistance Relative to MKN-74 (p53wt),[6],6X
"CN1CC[C@H](c2c(O)cc(O)c3c(=O)cc(-c4ccccc4Cl)oc23)[C@H](O)C1 (relative stereo) [flavopiridol, 2-(2-chlorophenyl)-5,7-dihydroxy-8-(cis-3-hydroxy-1-methyl-4-piperidinyl)-4H-1-benzopyran-4-one, hydrochloride]",bcl-2 expression,[8],complete loss of bcl-2
same,tolerability,[9],tolerated without evidence of significant toxicity
same,concentration inducing apoptosis,[10],100 nM
same,Percent Apoptosis,"[11]; 24 h continuous (single drug) or concomitant, flavopiridol 300 nM, MMC 1 μg/ml, paclitaxel 50 μM, carboplatin, hydrochloride",12%±1% and 11.6%±1%
same,% APOPTOSIS,"[11]; 24 hours, FLAVO 300 nM, Taxol 50 μM, MMC 1 μg/ml, single drugs or in combination",17%
same,"percent induction of apoptosis, Concomitant","[11]; 24 hours, FLAVO 300 nM, Taxol 50 μM, MMC 1 μg/ml, single drugs or together",17% ± 2%
same,induction of apoptosis (QFM),"[11]; FIG. 7, 24 hours, flavopiridol 300 nM, MMC 50 μM (as printed b127)",17%±2%
same,"induction of apoptosis (condensed chromatin, 400 cells)","[11]; MKN-74, 24 hours, Flavo 300 nM, MMC 5 μg/ml",17% ± 2
same,Maximal plasma drug concentration (Cmax),[12],9.5 µg/mL
same,Plasma clearance,[12],58 mL/min/kg
same,elimination half-life (T1/2),[12],112 min
same,Cmax,[12]; read-out: Maximal plasma drug concentration (Cmax),21.7 µM
same,Percent inhibition of PKC activity,[13]; Flavopiridol 34 nM,84%
same,PKC activity,[13]; Flavopiridol 34 nM,"4,000 counts of [^32P]ATP incorporated into myelin basic protein/minute"
same,Percent inhibition of PKC activity,[13]; Flavopiridol 340 nM,87%
same,PKC activity,[13]; Flavopiridol 340 nM,"3,300 counts of [^32P]ATP incorporated into myelin basic protein/minute"
same,t1/2,[14],14 h
same,IC50,[15],145 µM
same,IC50,[16],6 µM
same,IC50,[17],> 800 nM
same,IC50,[18],100 nM
same,IC50,[19],400 nM
same,cytotoxicity,[20]; exposure for 24 hours,essentially no cytotoxicity
same,cell proliferation,[20]; prolonged exposure for 72 hours,inhibits cell proliferation
same,bcl-2 expression,[21],failed to induce any decrease in bcl-2
same,concentration range inhibiting colony formation,[22],250 to 300 nM
same,percentage of cells undergoing apoptosis,[23],29%±2%
same,MTD,"[24]; one phase I study, 72 hour infusion every 2 weeks",50 mg/m^2/day
same,MTD,[24]; the other phase I trial,56 mg/m^2/day
same,concentration required to produce a similar effect (apoptosis),[25],at least 1000 nM
